Literature values in US6998391B2, “Method for treating diseases associated with abnormal kinase activity” (SuperGen.Inc., priority 2002, dated 2006).
Structures can show the parent of a compound that is named as a salt. Where two headings read alike, the source gives them in different places. Values belong to the molecule of their own block, whether it stands above or below them. Where no end group is shown, it is not given here.

Tests used:
[1] = test system: prostate cancer cells and osteoblasts; conditions: various in vitro and in vivo models
[2] = test system: platelet-derived growth factor receptor, fibroblast growth factor receptor, and insulin receptor; conditions: even at high concentrations
[3] = test system: erbB receptor tyrosine kinase family; conditions: human cancer cell lines
[4] = test system: Syk
[5] = test system: CML patients
[6] = test system: ERK5
[7] = test system: ERK1/2 pathway
[8] = test system: ERK1; conditions: low doses
[9] = test system: tumor microvessels; conditions: mouse, in vivo
[10] = target: T1, JAK3 (Homo sapiens, UniProt P52333); conditions: dose-dependent fashion
T1 sequence (P52333 1-1124): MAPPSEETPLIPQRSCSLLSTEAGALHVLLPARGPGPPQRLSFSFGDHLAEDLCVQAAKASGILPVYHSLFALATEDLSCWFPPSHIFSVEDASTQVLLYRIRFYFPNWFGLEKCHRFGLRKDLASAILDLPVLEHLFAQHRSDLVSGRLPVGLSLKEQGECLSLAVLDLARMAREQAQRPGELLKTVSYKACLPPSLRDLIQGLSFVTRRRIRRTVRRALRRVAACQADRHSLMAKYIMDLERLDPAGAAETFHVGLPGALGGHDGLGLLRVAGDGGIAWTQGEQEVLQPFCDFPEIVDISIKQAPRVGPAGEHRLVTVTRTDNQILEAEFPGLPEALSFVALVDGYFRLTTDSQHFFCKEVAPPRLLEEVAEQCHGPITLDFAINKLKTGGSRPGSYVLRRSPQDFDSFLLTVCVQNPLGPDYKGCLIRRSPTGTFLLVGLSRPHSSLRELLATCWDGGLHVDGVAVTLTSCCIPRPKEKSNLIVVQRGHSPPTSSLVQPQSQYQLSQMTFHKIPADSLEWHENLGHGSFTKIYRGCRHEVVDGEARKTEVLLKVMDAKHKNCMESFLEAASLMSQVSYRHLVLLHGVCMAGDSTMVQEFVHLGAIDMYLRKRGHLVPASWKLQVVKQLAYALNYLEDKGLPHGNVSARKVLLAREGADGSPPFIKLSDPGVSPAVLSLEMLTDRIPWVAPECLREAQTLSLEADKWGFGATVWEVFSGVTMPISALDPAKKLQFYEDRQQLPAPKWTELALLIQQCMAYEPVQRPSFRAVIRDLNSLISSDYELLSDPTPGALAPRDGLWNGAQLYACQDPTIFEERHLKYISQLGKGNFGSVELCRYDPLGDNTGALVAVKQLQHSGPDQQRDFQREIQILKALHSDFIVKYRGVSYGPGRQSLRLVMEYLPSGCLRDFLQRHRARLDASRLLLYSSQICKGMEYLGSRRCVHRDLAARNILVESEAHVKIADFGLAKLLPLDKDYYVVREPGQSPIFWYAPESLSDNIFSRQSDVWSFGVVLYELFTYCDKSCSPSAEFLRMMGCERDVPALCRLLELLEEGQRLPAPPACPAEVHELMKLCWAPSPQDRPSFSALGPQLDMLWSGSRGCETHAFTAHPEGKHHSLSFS

[11] = target: T2, ZAP-70 (Homo sapiens, UniProt P43403)
T2 sequence (P43403 1-619): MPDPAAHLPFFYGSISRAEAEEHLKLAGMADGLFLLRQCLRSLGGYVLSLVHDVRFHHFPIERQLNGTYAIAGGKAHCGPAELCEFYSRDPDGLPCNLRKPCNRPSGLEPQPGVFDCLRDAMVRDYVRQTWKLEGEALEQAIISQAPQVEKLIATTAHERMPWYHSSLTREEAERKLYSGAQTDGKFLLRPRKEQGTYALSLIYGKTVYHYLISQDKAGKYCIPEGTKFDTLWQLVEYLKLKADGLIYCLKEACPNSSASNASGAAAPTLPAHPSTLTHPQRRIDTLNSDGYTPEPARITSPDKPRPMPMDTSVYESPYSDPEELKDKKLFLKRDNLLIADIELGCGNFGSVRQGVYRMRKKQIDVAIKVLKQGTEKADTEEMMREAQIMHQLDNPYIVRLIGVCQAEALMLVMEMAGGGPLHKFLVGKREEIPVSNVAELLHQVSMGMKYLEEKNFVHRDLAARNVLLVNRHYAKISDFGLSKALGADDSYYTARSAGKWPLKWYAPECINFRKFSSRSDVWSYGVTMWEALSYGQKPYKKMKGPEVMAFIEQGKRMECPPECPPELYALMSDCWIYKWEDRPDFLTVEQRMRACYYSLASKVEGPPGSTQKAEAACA

[12] = target: Lck (Homo sapiens, UniProt P06239)
[13] = target: Syk (Homo sapiens, UniProt P43405)
[14] = patients with chronic phase CML

Chain of Lck (P06239 whole entry, species assumed): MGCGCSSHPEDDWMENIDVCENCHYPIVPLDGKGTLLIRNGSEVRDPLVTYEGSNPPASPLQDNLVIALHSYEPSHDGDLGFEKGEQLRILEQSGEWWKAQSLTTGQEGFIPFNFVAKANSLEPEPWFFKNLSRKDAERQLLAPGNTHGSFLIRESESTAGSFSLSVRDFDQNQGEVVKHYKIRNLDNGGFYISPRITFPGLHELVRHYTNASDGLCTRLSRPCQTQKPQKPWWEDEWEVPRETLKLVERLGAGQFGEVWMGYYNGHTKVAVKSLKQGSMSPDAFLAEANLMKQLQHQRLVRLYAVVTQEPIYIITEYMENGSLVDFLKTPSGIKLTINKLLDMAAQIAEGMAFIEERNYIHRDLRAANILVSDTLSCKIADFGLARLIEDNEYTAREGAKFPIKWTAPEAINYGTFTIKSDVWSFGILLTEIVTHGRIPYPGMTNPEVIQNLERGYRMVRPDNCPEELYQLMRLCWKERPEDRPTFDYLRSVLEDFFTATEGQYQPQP

Molecule: CO[C@]1(CO)C[C@H]2O[C@]1(C)n1c3ccccc3c3c4c(c5c6ccccc6n2c5c31)C(=O)NC4 [CEP-75 1]
apoptosis of prostate cancer cells and osteoblasts [1]: selectively induce apoptosis

Molecule: C[C@]12O[C@H](C[C@]1(O)CO)n1c3ccccc3c3c4c(c5c6ccccc6n2c5c31)CNC4=O [CEP-701]
apoptosis of prostate cancer cells and osteoblasts [1]: selectively induce apoptosis

inhibition of tyrosine kinase activity [3]: prompt, potent, and sustained inhibition
Molecule: C=CC(=O)Nc1cc2c(Nc3ccc(F)c(Cl)c3)ncnc2cc1OCCCN1CCOCC1 [CI-1033]
inhibition of tyrosine kinase activity of other receptors [2]: without inhibiting

Molecule: Cc1ccc2c(=O)c3ccccc3n(CCCN)c2c1C.O=C(O)C(=O)O [ER-27319, 3,4-dimethyl-10-(3-aminopropyl)-9-acridone oxalate]
FceRI-mediated degranulation, tyrosine phosphorylation of Syk ([4]; intact mast cells, not Lyn): inhibits

Molecule: Cc1ccc(NC(=O)c2ccc(CN3CCN(C)CC3)cc2)cc1Nc1nccc(-c2cccnc2)n1 [Imatinib mesylate]
complete cytogenetic response ([5]; accelerated phase CML): 14%
complete cytogenetic response maintained for four weeks ([5]; accelerated phase CML): 4%
remissions ([5]; accelerated phase CML patients): 63%
complete cytogenetic response ([5]; blast phase CML): 5%
complete cytogenetic response maintained for four weeks ([5]; blast phase CML): 1%
remissions ([5]; blast phase patients): 26%
complete cytogenetic response ([5]; chronic phase CML): 30%
complete cytogenetic response maintained for four weeks ([5]; chronic phase CML): 16%
complete hematologic response [5, 14]: 88%
major cytogenetic response [5, 14]: 49%

Molecule: COc1cccc(-c2cc(=O)c3ccccc3o2)c1N [PD98059]
ERK5/BMK1 pathway inhibition [6]: inhibited
cyclin D1 expression and cell proliferation [7]: prevented cyclin D1 expression and inhibits cell proliferation

Molecule: O=C(NOCC1CC1)c1ccc(F)c(F)c1Nc1ccc(I)cc1Cl [PD184352]
ERK1 activity [8]: abolished
effect on ERK5 ([6]; low doses): no effect

Molecule: Oc1cc(O)cc(/C=C/c2ccc(O)c(O)c2)c1 [Piceatannol, 3,4,3′,5′-tetrahydroxy-trans-stilbene]
FceRI-mediated IP3 production, serotonin secretion, membrane ruffling and cell spreading ([4]; by inhibiting Syk): inhibits

Molecule: Cc1[nH]c(/C=C2\C(=O)Nc3ccccc32)c(C)c1CCC(=O)O [SU6668]
time to apoptosis in tumor microvessels after initiation of treatment [9]: ≤ 6 h
time to dose-dependent decreases in tumor microvessel density after first treatment [9]: ≤ 3 days

Molecule: N#CC(=C(/N)Sc1ccccc1N)/C(C#N)=C(\N)Sc1ccccc1N [U0126]
ERK5/BMK1 pathway inhibition [6]: inhibited
cyclin D1 expression and cell proliferation [7]: prevented cyclin D1 expression and inhibits cell proliferation

JAK3 inhibition [10]: inhibited JAK3
Molecule: COc1cc2ncnc(Nc3cc(Br)c(O)c(Br)c3)c2cc1OC [WHI-P97, 4-(3′,5′-dibromo-4′-hydroxylphenyl)-amino-6,7-dimethoxyquinazoline]

Molecule: COc1cc2ncnc(Nc3ccc(O)c(Br)c3)c2cc1OC [WHI-P 154, 4-(3′-bromo-4′-hydroxylphenyl)-amino-6,7-dimethoxyquinazoline]
JAK3 inhibition [10]: inhibited JAK3

inhibition of ZAP-70 [11]: competitive inhibitor
inhibition of Lck [12]: poor inhibitor
inhibition of Syk [13]: poor inhibitor
Molecule: KLILFLLL
